Experiment [1] has as its target DNA gyrase (Staphylococcus aureus, UniProt P0A0K8+P20831). Nature of the experiment: Inhibition of Staphylococcus aureus DNA gyrase ATPase activity using pBR322 DNA as substrate after 30 mins by fluorescence polarization assay. It counts as protein-complex assay.
Experiment [2] deals with DNA gyrase subunit B (Staphylococcus aureus, UniProt P0A0K8). Put plainly: Binding affinity to full length Staphylococcus aureus GyrB by STD-NMR spectroscopic analysis.
The nature of experiment [3]: Binding affinity to Escherichia coli ParE by STD-NMR Spectroscopic analysis.

In general, IC50 refers to the concentration that gives 50% inhibition.

Each structure is given as a SMILES string.

Chain of DNA gyrase subunit B (P0A0K8 whole entry): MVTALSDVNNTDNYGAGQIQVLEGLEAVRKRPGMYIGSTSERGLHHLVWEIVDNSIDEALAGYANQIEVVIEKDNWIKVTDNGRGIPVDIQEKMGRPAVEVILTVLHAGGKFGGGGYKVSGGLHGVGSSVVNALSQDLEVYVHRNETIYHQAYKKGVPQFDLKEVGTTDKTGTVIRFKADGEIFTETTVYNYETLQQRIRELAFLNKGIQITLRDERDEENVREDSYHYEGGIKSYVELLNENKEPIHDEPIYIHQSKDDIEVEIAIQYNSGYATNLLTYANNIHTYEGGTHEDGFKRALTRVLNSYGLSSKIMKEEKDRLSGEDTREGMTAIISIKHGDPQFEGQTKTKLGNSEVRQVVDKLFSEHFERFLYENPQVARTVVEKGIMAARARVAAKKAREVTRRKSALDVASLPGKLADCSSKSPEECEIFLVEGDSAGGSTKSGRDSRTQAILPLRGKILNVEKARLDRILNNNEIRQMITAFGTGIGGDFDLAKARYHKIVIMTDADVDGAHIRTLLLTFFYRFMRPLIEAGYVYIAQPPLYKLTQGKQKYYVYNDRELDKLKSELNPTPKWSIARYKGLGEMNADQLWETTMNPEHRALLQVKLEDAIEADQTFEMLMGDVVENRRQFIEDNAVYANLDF
Chain of DNA gyrase (P0A0K8 whole entry): as above
Chain of DNA gyrase (P20831 whole entry): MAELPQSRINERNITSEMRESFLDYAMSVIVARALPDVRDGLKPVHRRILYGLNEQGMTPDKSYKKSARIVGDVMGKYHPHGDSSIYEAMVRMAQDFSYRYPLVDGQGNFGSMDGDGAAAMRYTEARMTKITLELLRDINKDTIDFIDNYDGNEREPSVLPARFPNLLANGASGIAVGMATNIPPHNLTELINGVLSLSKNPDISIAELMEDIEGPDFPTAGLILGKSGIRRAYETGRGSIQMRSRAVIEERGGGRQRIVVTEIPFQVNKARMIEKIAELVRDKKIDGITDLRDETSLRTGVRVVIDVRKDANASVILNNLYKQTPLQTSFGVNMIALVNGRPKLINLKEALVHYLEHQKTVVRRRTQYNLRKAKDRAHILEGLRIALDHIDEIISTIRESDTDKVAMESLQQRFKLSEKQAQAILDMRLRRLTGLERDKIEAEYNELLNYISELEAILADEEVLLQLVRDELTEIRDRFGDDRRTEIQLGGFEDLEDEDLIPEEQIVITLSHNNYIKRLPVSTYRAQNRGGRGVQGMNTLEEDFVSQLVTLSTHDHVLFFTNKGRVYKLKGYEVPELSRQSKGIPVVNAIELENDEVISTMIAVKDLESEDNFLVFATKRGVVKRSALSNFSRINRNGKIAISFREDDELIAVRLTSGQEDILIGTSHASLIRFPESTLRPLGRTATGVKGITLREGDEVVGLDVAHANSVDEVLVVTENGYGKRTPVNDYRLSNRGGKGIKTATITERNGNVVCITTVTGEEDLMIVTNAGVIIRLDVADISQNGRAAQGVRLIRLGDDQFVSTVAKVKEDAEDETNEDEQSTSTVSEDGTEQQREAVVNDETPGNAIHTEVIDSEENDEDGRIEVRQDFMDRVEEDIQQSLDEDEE

Consider `O=c1ccc2c(-c3cnc(-c4cccnc4)s3)n[nH]c2[nH]1`, for which the IC50 in experiment [1] worked out at 0.265 µM; in experiment [2], 50 µM.

Turning to `Cc1cc(=O)[nH]c2[nH]nc(-c3cnc(-c4cccnc4)s3)c12`, the IC50 in experiment [1] was 3.25 µM; in experiment [2], 50 µM.

In the case of `Nc1nc(O)cc(-c2ccccc2)n1`, the IC50 in experiment [2] is 50 µM; in experiment [3], “Not Active”.

Regarding `Cc1cc(O)[nH]c2nnc(-c3ccccc3)c1-2`, the IC50 is 840 µM in experiment [2] and “Not Active” in experiment [3].

Turning to `O=c1[nH]cnc2scc(-c3cccs3)c12`, in experiment [2], the IC50 came to 50 µM.

As for `O=c1cc(-c2ccccc2)c2c(-c3cnc(-c4cccnc4)s3)n[nH]c2[nH]1`, the IC50 is 1.32 µM in experiment [1] and 50 µM in experiment [2].

In the case of `Cc1n[nH]c2c1C(c1ccccc1F)CC(=O)N2` (configuration not stated), the IC50 in experiment [2] was 840 µM; in experiment [3] it was “Not Active”.

Regarding `O=C1Nc2ccccc2/C1=C\c1cccnc1`, the IC50 in experiment [2] was 840 µM; in experiment [3] (read-out: IC50), 50 µM.

Turning to `CCCC(=O)Nc1sccc1C(N)=O`, the IC50 in experiment [2] and in experiment [3] (read-out: IC50) was 50 µM each time.

(Values after ChEMBL document CHEMBL3758166, “Fragment-based discovery of DNA gyrase inhibitors targeting the ATPase subunit of GyrB” (Bioorg Med Chem Lett, 2016).)
